From patent US20030229027A1, “Stabilized natural cannabinoid formulation” (priority 2002, published 2003)
Read-outs that look alike come from different tables or passages of the source.

Tests used:
[1] = cited from earlier work; for Glass transition temperature: at dry conditions; for Tg / Tg′: comparison with inulin
[2] = THC-analysis control experiments (degradation of THC in methanol); assay type: physicochemical
[3] = Dynamic vapour sorption (gravimetric sorption analyser); assay type: physicochemical; conditions: after exposure to 90% RH
Protocol: Water sorption isotherm of freeze dried inulin was measured at ambient pressures and 25° C. using a gravimetric sorption analyser (DVS-1000 Water Sorption Instrument, Surface Measurement Systems Limited, London, UK). The uptake of water by inulin was measured from 0% to 90% RH with steps of 10% RH. The initial sample weight was about 10 mg. It was assumed that equilibrium was reached when the change of weight was less than 0.9 μg during a ten minutes period.
The water sorption of THC was determined according to the procedure described above for inulin. The THC was dissolved in methanol before it was put in the DVS-1000 instrument. During initial exposure to a dry nitrogen flow, the methanol was evaporated. As soon as about 90% of the solvent was evaporated, additional THC solution was added to the sample-cup. This procedure was repeated until 15 mg of pure THC was present in the sample cup. After the evaporation of the last methanol, the relative humidity was increased from 0% to 90% in steps of 10%.

[4] = Stability (no clouding) of water-alcohol solutions of inulin and THC; assay type: physicochemical; conditions: 0.4% w/v THC
Protocol: The suitable volume ratio of water/alcohol was investigated by testing the stability of 10% w/v inulin solutions with different ratio's water/alcohol. Inulin was dissolved in different amounts of water (3 to 7 mL). Subsequently different amounts of alcohol were added until a total volume of 10 mL. For THC the same procedure was followed, but now water was added to the alcoholic THC solution. The solution was judged as sufficiently stable if no clouding appeared within the time of processing. For spray drying batches were made which required up to half an hour of spraying. Therefore the solution should be clear for at least that period of time. For freeze drying the solution should be clear until it is frozen. In this case ten minutes is sufficient. Furthermore, it was investigated whether the aqueous inulin solution could be added slowly or should be mixed instantaneously.
The three relevant alcohol's were added to a solution of inulin in water. It was determined for how long the obtained solution stayed clear. After 1 g of inulin was dissolved in 4 mL water, water and/or alcohol was added to a total volume of 10 mL, yielding a 10% w/v solution. The largest concentration of alcohol was thus obtained. THC was dissolved in the alcohol of interest. Subsequently, alcohol and/or water was added to give 0.4% w/v solutions.

[5] = Solubility of THC in water; conditions: 20 °C, thermodynamic from solid, stirred 3 days
[6] = Modulated DSC, thermal behavior of THC; assay type: physicochemical; conditions: mDSC thermogram of THC
Protocol: The thermal behavior of THC was determined by mDSC. A modulation amplitude of ±0.318° C. every 60 sec and a heating rate of 2° C./min was used. During measurement, the sample cell was purged with nitrogen at a flow rate of 35 mL/min. A blob of pure THC was put in the sample cup. After initial cooling the sample was first scanned till 50° C. In this way the blob was able to spread over the entire bottom of the sample pan, thereby increasing the surface available for heat transfer during the second scan. The sample was then cooled until −40° C. and heated to 350° C.

For `OC[C@@H](O)[C@@H](O[C@@H]1O[C@H](CO)[C@H](O)[C@H](O)[C@H]1O)[C@H](O)[C@@H](O)CO` [lactitol], the Glass transition temperature [1] is listed as 33 °C.

In the case of `OC[C@@H](O)[C@@H](O[C@H]1O[C@H](CO)[C@@H](O)[C@H](O)[C@H]1O)[C@H](O)[C@@H](O)CO` [Maltitol, maltitol], the Glass transition temperature [1] is listed as 44 °C.

For `CCCCCc1cc(O)c2c(c1)OC(C)(C)[C@@H]1CCC(C)=C[C@@H]21` [THC, Δ^9-tetrahydrocannabinol], the “Degradation of THC calibration solutions” value ([2]; solutions in methanol, 2 weeks at 4° C.) was “no significant degradation”, the “Degradation of THC by ultrasonic treatment” value ([2]; ten minutes ultrasonic treatment in methanol) was “no degradation” and the “Degradation of THC during extraction” value ([2]; two days of extraction in methanol) was “no significant degradation”. The Water absorbed [3] was 0.3%, the “% v/v water for a stable solution” value ([4]; EtOH (ethanol)) was ≤ 53% maximum % v/v and the “% v/v water for a stable solution” value ([4]; TBA (t-butanol)) was ≤ 63% maximum % v/v. For the same compound, the “% v/v water for a stable solution” value ([4]; n-PrOH (n-propanol)) was ≤ 62% maximum % v/v, the solubility at 3 days [5] was < 1 µg/mL and the “Onset of endothermic peak (evaporation)” value [6] was 200 °C. For the same compound, the Tg [6] was 10 °C.

In the case of `OC[C@H]1O[C@@](CO)(O[C@H]2O[C@H](CO)[C@@H](O)[C@H](O)[C@H]2O)[C@@H](O)[C@@H]1O` [sucrose], the Tg [1] is listed as 76 °C and the “Tg′” value [1] is listed as −39 °C.

In the case of `OC[C@H]1O[C@H](O[C@H]2O[C@H](CO)[C@@H](O)[C@H](O)[C@H]2O)[C@H](O)[C@@H](O)[C@@H]1O` [trehalose], the Tg [1] is listed as 120 °C and the “Tg′” value [1] is listed as −36 °C.
